From US9982026B2, “Compositions and methods for assessing and treating adrenal diseases and disorders” (YALE UNIVERSITY, priority 2011, dated 2018)
Changes are numbered by the printed parent chain. “Also recorded” adds a separate entry of the source.

What was measured:
[1] = biological target: T1, KCNJ3/KCNJ5G151R in 293T cells (Homo sapiens, UniProt P48544+P48549, G151R); test: Whole-cell patch clamp of KCNJ3/KCNJ5 heterotetramers, Ba2+ block; assay type: cell-based; settings: 1 mM BaCl2 in extracellular solution
T1 construct: #SC118769 (KCNJ3); host or cells: 293T
T1 sequence (P48544 1-419 G151R): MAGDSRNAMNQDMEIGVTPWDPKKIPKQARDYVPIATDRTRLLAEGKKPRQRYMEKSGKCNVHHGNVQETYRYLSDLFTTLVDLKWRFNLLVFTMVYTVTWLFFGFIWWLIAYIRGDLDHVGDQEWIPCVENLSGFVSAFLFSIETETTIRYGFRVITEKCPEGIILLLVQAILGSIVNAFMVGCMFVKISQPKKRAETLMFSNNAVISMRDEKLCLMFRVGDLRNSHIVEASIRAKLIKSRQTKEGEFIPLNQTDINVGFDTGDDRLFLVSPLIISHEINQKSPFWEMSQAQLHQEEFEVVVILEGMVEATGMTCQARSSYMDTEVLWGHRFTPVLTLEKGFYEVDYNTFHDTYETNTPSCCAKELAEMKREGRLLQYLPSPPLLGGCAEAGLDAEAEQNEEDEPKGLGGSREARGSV
T1 sequence (P48549 1-501): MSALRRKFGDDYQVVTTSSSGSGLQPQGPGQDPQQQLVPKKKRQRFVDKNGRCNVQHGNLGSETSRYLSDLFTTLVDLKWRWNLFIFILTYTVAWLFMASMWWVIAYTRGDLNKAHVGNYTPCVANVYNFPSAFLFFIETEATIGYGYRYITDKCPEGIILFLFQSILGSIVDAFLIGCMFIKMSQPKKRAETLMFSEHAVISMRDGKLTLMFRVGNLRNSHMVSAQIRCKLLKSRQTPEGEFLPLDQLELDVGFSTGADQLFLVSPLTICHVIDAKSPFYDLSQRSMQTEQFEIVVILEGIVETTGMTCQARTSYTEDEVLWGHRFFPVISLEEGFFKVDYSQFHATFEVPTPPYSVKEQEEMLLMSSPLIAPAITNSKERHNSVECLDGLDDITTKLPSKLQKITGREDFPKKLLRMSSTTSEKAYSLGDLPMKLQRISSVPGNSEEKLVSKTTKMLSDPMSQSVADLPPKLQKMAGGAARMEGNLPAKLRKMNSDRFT
Experimental: (§1) FIG. 3A depicts the results of representative whole-cell recordings of 293T cells transfected with empty vector or KCNJ3 plus WT or mutant KCNJ5. […] Middle row: 1 mM BaCl2 was added. Bottom row: 140 mM choline chloride was substituted for extracellular NaCl. FIG. 3B depicts the current-voltage relationships from cells expressing indicated constructs (n=3 to 7 for each construct). Reversal potentials in control conditions are indicated. […] FIG. 3C depicts that the K+:Na+ permeability ratios calculated from the reversal potentials show loss of ion selectivity of the mutant channels. Data in FIGS. 3B and 3C are shown as mean±SEM.
(§2) Empty vector was used as a control. Cells were examined one day after transient transfection.
(§3) 1 mM BaCl2 was used to block Kir channels. […] All data are shown as mean±SEM.

[2] = biological target: T2, KCNJ3/KCNJ5WT in 293T cells (Homo sapiens, UniProt P48544+P48549); test: as above; assay type: cell-based; settings: 1 mM BaCl2 in extracellular solution; listed as Ba2+
T2 construct: #SC118769 (KCNJ3); host or cells: 293T
T2 sequence (P48544 1-419): T1 sequence (P48544 1-419 G151R) with R151G
T2 sequence (P48549 1-501): T1 sequence (P48549 1-501)
Experimental: as §1, §2, §3

[3] = system: KCNJ3 plus mutant KCNJ5 in 293T cells; test: as above; assay type: cell-based, human; settings: 1 mM BaCl2 in extracellular solution; mutant channels G151R, L168R, T158A
Experimental: as §1, §2, §3

[4] = biological target: T3, KCNJ5 WT homotetramers in 293T cells (Homo sapiens, UniProt P48544); test: Whole-cell patch clamp of KCNJ5 homotetramers, Ba2+ block; assay type: cell-based; settings: 1 mM BaCl2 in extracellular fluid, symmetric high K+ solutions
T3 construct: host or cells: 293T
T3 sequence (P48544 1-419): T1 sequence (P48544 1-419 G151R) with R151G
Experimental: Because of low current amplitude of homotetrameric channels, currents were measured under symmetrical high Na+ or high K+ conditions, which increases current amplitude (Owen et al., 1999, Exp Physiol 84:471-488; Andreoli, et al., Eds., Molecular Biology of Membrane Transport Disorders (Plenum Press, New York, ed. 2, 1996), chap. 5) (FIGS. 13A-13D); reversal potentials and permeability ratios were determined using physiological solutions (FIGS. 13E, 13F). (FIG. 13A) Representative whole-cell recordings showing K+ and Na+ currents in 293T cells transfected with KCNJ5, KCNJ5G151R, KCNJ5L168R, and KCNJ5T158A. […] (FIGS. 13B, 13C) Current-voltage relationships from cells expressing the indicated constructs with symmetric high K+ or high Na+ solutions as in FIG. 13A. […] Relative permeabilities of K+:Na+ were determined in physiologic solutions as described in FIG. 13E. (FIG. 13E) Reversal potential of 293T cells transfected with WT or mutant KCNJ5 using physiological solutions. […] The reversal potential for the homotetramers was determined by a ramp protocol ranging from −100 to +100 mV after forming a high resistance seal. […]
To analyze homomeric wild-type or mutant KCNJ5 currents, 1 μg of cDNA was transfected. […] For each construct, currents were measured in two conditions. […] The reversal potential was determined using a ramp protocol ranging from −100 to +100 mV after forming a high resistance seal. […]

[5] = biological target: KCNJ3/KCNJ5WT cotransfected with the dopamine D2 receptor in 293T cells (Homo sapiens, UniProt P14416); settings: 1 μM dopamine, current amplitudes at −100 mV, before vs after addition, n=4
Sequence of KCNJ3/KCNJ5WT cotransfected with the dopamine D2 receptor in 293T cells (P14416 whole entry): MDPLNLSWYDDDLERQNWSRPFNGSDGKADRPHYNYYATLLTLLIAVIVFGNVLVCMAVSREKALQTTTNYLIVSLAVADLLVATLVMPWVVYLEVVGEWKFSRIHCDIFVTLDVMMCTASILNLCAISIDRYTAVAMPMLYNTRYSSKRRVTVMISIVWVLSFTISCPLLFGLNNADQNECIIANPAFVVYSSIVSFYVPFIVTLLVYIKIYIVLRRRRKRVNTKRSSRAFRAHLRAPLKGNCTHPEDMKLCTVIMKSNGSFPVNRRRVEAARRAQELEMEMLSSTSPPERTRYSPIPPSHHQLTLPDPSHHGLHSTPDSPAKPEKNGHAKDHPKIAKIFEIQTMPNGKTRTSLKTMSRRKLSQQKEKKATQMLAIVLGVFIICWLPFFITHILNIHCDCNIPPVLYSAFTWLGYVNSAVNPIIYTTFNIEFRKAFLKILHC
Experimental: Representative whole-cell recordings of 293T cells cotransfected with KCNJ3/KCNJ5WT and the dopamine D2 receptor are shown. The pipette holding potential was 0 mV before clamping, and the cell was clamped from −100 to 60 mV with 20 mV increments before (left) and after (right) addition of 1 μM dopamine. The extracellular solution contained 140 mM NaCl, 5 mM KCl, 1.8 mM MgCl2, 1.8 mM CaCl2, and 10 mM HEPES, pH 7.4, while the intracellular solution contained 140 mM KCl, 4 mM MgCl2, 1 mM CaCl2, 1 mM EGTA, and 5 mM HEPES, pH 7.4. […] (FIG. 12B) Mean±SEM of current amplitudes measured at −100 mV before (control) and after addition of dopamine as in FIG. 12A (n=4).
293T cells were transfected with plasmid DNA using TransIT®-293 Transfection Reagent (Mirus) according to the manufacturer's instructions. Empty vector was used as a control. Cells were examined one day after transient transfection. Standard perforated whole-cell patch clamp recordings were performed on GFP-positive cells using an Axopatch 200A (Axon Instruments) amplifier. […]
Cells were cotransfected with 0.8 μg wild-type or mutant KCNJ5 and 0.5 μg KCNJ3 cDNA. […] Endogenous currents of 293T cells transfected with empty vector were measured from −100 to 60 mV. […] Data were analyzed by a combination of Axon Clampfit9.2 (Molecular Devices) and SigmaPlot (Jandel Scientific) programs. Data from 3-7 cells were analyzed for each construct. […]

Row | increase of current [5] [%] | SMILES | inhibition of current by Ba2+ [1] | inhibition of current by Ba2+ [2] | inhibition of current by Ba2+ [3] | inhibition of channel activity [4]
1 |  | [Ba+2].[Cl-].[Cl-] [BaCl2] | loss of inhibition | inhibited; also recorded: inhibits the WT channel | variable inhibition | inhibited WT channel activity
2 | ~50 | Cl.NCCc1ccc(O)c(O)c1 [Dopamine, dopamine hydrochloride] |  |  |  | 
